GI50 and TGI data for six compounds are collected here from PubChem BioAssay (NCI).

SMILES strings stand for the structures.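 How tested: cells in 96-well plates exposed to compound for 48 hours at five concentrations. The concentration for 50% growth inhibition is given as GI50. Definition used: TGI = concentration required for complete inhibition of growth.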

Among the test systems are MOLT-4 leukemia; SK-OV-3 ovarian; UACC-62 melanoma; COLO 205 colon; M14 melanoma; T-47D breast; SNB-19 CNS; OVCAR-5 ovarian; RXF 393 renal; SW-620 colon.
What all share (experiment): NCI-60 cell line screen, 48 h

Consider `COc1ccccc1Cn1cc2c(c1-c1ccccc1)CCc1cnoc1-2`, for which the GI50 was 3.42 µM in the assay on MOLT-4 leukemia; 3.5 µM with SK-OV-3 ovarian; 2.34 µM with UACC-62 melanoma; 2.56 µM in the assay on COLO 205 colon; 2.06 µM in the assay on M14 melanoma; 4.49 µM in the assay on T-47D breast. The GI50 in the assay on SNB-19 CNS is 5.4 µM; in the assay with OVCAR-5 ovarian it was 9.82 µM; in the assay on RXF 393 renal, 2.57 µM; in the assay on SW-620 colon it was 1.83 µM. For the same compound, the TGI in the assay on MOLT-4 leukemia is greater than 100 µM; in the assay on SK-OV-3 ovarian, greater than 100 µM; in the assay with UACC-62 melanoma, greater than 100 µM; in the assay with COLO 205 colon it was 7.62 µM; in the assay on M14 melanoma, 17.3 µM; with T-47D breast, greater than 100 µM. The TGI in the assay on SNB-19 CNS, with OVCAR-5 ovarian, in the assay on RXF 393 renal and in the assay with SW-620 colon was greater than 100 µM throughout.
For `CC(C)(C)c1ccc(O)c(CN(Cc2cc(C(C)(C)C)ccc2O)c2ccccc2)c1`, the TGI worked out at 37.8 µM in the assay on MOLT-4 leukemia; 84.8 µM with SK-OV-3 ovarian; 28.4 µM with UACC-62 melanoma; 30.9 µM with COLO 205 colon; 28.2 µM with M14 melanoma; 42.8 µM with T-47D breast. Further, the TGI in the assay on SNB-19 CNS came out at 31.5 µM; in the assay with OVCAR-5 ovarian, 31.8 µM; in the assay with RXF 393 renal, 27.5 µM; in the assay on SW-620 colon it was 37.6 µM.
On to `CCc1oc2ccccc2c1C(=O)c1cc(I)c(O)c(I)c1`, for which the GI50 in the assay with MOLT-4 leukemia was 3.33 µM; in the assay on SK-OV-3 ovarian, 5.46 µM; in the assay on UACC-62 melanoma it was 3.32 µM; in the assay with COLO 205 colon it was 5.05 µM; with M14 melanoma it was 1.24 µM; with T-47D breast, 4.56 µM. Further, the GI50 is 5.19 µM in the assay on SNB-19 CNS, 11.4 µM with OVCAR-5 ovarian, 2.98 µM in the assay with RXF 393 renal and 2.39 µM in the assay on SW-620 colon. The TGI in the assay with MOLT-4 leukemia came out at 26.6 µM; with SK-OV-3 ovarian, 18.4 µM; in the assay with UACC-62 melanoma it was 16.8 µM; with COLO 205 colon it was 18.7 µM; with M14 melanoma it was 5.3 µM; with T-47D breast it was 20.8 µM. Also, the TGI was found to be 18.9 µM with SNB-19 CNS, 25.1 µM in the assay on OVCAR-5 ovarian, 16 µM with RXF 393 renal and 12.6 µM in the assay on SW-620 colon.
As to `Cc1ccc(NC(=O)c2sc3nc(C)c(C(O)c4ccccc4)cc3c2N)cc1` (centres undefined), the GI50 in the assay with MOLT-4 leukemia was 0.643 µM; with SK-OV-3 ovarian, 0.768 µM; in the assay on UACC-62 melanoma, 0.621 µM; in the assay on COLO 205 colon, 0.573 µM; with M14 melanoma, 0.284 µM; in the assay with T-47D breast, 0.471 µM. Moreover, the GI50 in the assay with SNB-19 CNS is 0.542 µM; with OVCAR-5 ovarian, 0.698 µM; in the assay on RXF 393 renal it was 0.333 µM; in the assay on SW-620 colon, 0.355 µM. Further, the TGI in the assay on MOLT-4 leukemia was greater than 100 µM; in the assay on SK-OV-3 ovarian it was 30.6 µM; in the assay on UACC-62 melanoma, greater than 100 µM; in the assay with COLO 205 colon, greater than 21.8 µM; with M14 melanoma it was 26.1 µM; in the assay on T-47D breast it was greater than 58.3 µM. Further, the TGI was greater than 100 µM with SNB-19 CNS, 24.1 µM in the assay on OVCAR-5 ovarian, 3.29 µM with RXF 393 renal and 52.7 µM with SW-620 colon.
As for `Cc1ccc(NC(=O)NCCCOc2ccc(N3C(N)=NC(N)=NC3(C)C)cc2Cl)cc1S(=O)(=O)F`, the GI50 with MOLT-4 leukemia was 9.26 µM; in the assay on SK-OV-3 ovarian it was 43.6 µM; in the assay on UACC-62 melanoma it was 4.05 µM; with COLO 205 colon it was 13.6 µM; in the assay with M14 melanoma, 7.81 µM; in the assay with T-47D breast, 19.8 µM. Also, the GI50 in the assay on SNB-19 CNS was 6.04 µM; with OVCAR-5 ovarian, 6.44 µM; in the assay on RXF 393 renal it was 98.3 µM; in the assay with SW-620 colon, 2.03 µM. Besides, the TGI was greater than 100 µM in the assay with MOLT-4 leukemia; greater than 100 µM in the assay with SK-OV-3 ovarian; greater than 100 µM in the assay with UACC-62 melanoma; 95.7 µM in the assay with COLO 205 colon; greater than 100 µM with M14 melanoma; greater than 100 µM in the assay on T-47D breast. For the same compound, the TGI in the assay on SNB-19 CNS, with OVCAR-5 ovarian, in the assay with RXF 393 renal and with SW-620 colon was greater than 100 µM in each case.
On to `COc1cc2c3c(n(CCNCCCNCCn4c5c(c6cc(OC)c(OC)cc6c4=O)C(=O)c4ccccc4-5)c(=O)c2cc1OC)-c1ccccc1C3=O`, for which the TGI is 0.0432 µM in the assay on MOLT-4 leukemia; 32.2 µM in the assay with SK-OV-3 ovarian; 2.69 µM in the assay with UACC-62 melanoma; 1.01 µM with COLO 205 colon; 6.52 µM in the assay with M14 melanoma; greater than 34.7 µM in the assay on T-47D breast. Also, the TGI worked out at 4.26 µM in the assay on SNB-19 CNS, 7.56 µM in the assay with OVCAR-5 ovarian, 12.1 µM with RXF 393 renal and 11.8 µM in the assay on SW-620 colon. In addition, the GI50 with SK-OV-3 ovarian is 7.02 µM; in the assay with UACC-62 melanoma, 1.2 µM; in the assay with COLO 205 colon, 0.121 µM; with M14 melanoma it was 1.38 µM; in the assay with T-47D breast, 2.32 µM; in the assay on SNB-19 CNS, 0.162 µM. Also, the GI50 is 0.732 µM with OVCAR-5 ovarian, 1.14 µM in the assay on RXF 393 renal and 0.261 µM in the assay with SW-620 colon.
